target: T1, Dihydrofolate reductase (Bos taurus, UniProt P00376); experiment: Dihydrofolate Reductase (DHFR) Inhibition Assay; settings: pH 7.4; 25 °C
T1 sequence (P00376 whole entry): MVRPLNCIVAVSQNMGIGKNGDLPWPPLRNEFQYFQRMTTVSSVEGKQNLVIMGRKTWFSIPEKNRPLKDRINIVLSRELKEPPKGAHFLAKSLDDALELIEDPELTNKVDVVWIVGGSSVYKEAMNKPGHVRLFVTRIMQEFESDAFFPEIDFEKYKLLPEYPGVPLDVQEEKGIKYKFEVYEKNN

Structure (SMILES)	IC50
COc1ccc(-n2c(SCC(=O)NN)nc3ccc(Cl)cc3c2=O)cc1 [2-[6-Chloro-3-(4-methoxyphenyl)-4-oxo-3,4-dihydroquinazolin-2-yl-thio] acetohydrazide (14)]	7.5 µM
COc1ccc(-n2c(SCc3nnc(Nc4ccc(Cl)cc4)s3)nc3cc(OC)c(OC)cc3c2=O)cc1 [6,7-Dimethoxy-2-((5-(4-chlorophenylamino)-1,3,4-thiadiazol-2-yl)methylthio)-3-(4-methoxyphenyl)quinazolin-4(3H)-one (30)]	14.7 µM
COc1ccc(-n2c(SCc3nnc(Nc4ccc(Cl)cc4)s3)nc3ccc(Cl)cc3c2=O)cc1 [6-Chloro-2-((5-(4-chlorophenylamino)-1,3,4-thiadiazol-2-yl)methylthio)-3-(4-methoxyphenyl)quinazolin-4(3H)-one (28)]	0.4 µM
COc1ccc(-n2c(=S)[nH]c3ccc(Cl)cc3c2=O)cc1 [6-Chloro-2-mercapto-3-(4-methoxyphenyl)quinazolin-4(3H)-ones (10)]	11.5 µM
COc1ccc(Nc2nnc(CSc3nc4ccc(Cl)cc4c(=O)n3-c3ccc(OC)cc3)s2)cc1 [6-chloro-2-((5-(4-methoxyphenylamino)-1,3,4-thiadiazol-2-yl)methylthio)-3-(4-methoxyphenyl)quinazolin-4(3H)-one (29)]	4.4 µM
COc1ccc(-n2c(=S)[nH]c3cc(OC)c(OC)cc3c2=O)cc1 [(6,7-Dimethoxy)-2-mercapto-3-(4-methoxyphenyl)quinazolin-4(3H)-ones (11)]	29 µM
CCOC(=O)CSc1nc2ccc(Cl)cc2c(=O)n1-c1ccc(OC)cc1 [Ethyl 2-(6-chloro-3-(4-methoxyphenyl)-4-oxo-3,4-dihydroquinazolin-2-yl-thio)acetate (12)]	1.7 µM
COc1ccc(-n2c(SCC(=O)N/N=C/c3ccc(Cl)cc3)nc3ccc(Cl)cc3c2=O)cc1 [N'-[4-Chlorobenzylidene-2-(6-chloro)-3-(4-methoxy-phenyl)-4-oxo-3,4-dihydroquinazolin-2-yl-thio]acetohydrazide (16)]	19 µM
COc1ccc(/C=N/NC(=O)CSc2nc3ccc(Cl)cc3c(=O)n2-c2ccc(OC)cc2)cc1 [N'-[4-Methoxybenzylidene-2-(6-chloro)-3-(4-methoxy-phenyl)-4-oxo-3,4-dihydroquinazolin-2-yl-thio]acetohydrazide (17)]	0.01 µM

The next lines start with the values.

IC50	Structure (SMILES)
0.6 µM	COc1ccc(C(=S)NNC(=O)CSc2nc3cc(OC)c(OC)cc3c(=O)n2-c2ccc(OC)cc2)cc1 [1-[2-(6,7-Dimethoxy)-3-(4-methoxy-phenyl)-4-oxo-3,4-dihydroquinazolin-2-yl-thio)acetyl)-4-(4-methoxy)phenyl]thiosemicarbazide (23)]
1.2 µM	COc1ccc(-n2c(SCC(=O)NNC(=S)c3ccc(Cl)cc3)nc3ccc(Cl)cc3c2=O)cc1 [1-[2-(6-Chloro)-3-(4-methoxy-phenyl)-4-oxo-3,4-dihydroquinazolin-2-yl-thio)acetyl)-4-(4-chloro)phenyl]thiosemicarbazide (20)]
0.8 µM	COc1ccc(-n2c(SCC(=O)NN)nc3cc(OC)c(OC)cc3c2=O)cc1 [2-[(6,7-Dimethoxy)-3-(4-methoxyphenyl)-4-oxo-3,4-dihydroquinazolin-2-yl-thio] acetohydrazide (15)]
11.8 µM	COc1ccc(Nc2nnc(CSc3nc4cc(OC)c(OC)cc4c(=O)n3-c3ccc(OC)cc3)s2)cc1 [6,7-Dimethoxy-2-((5-(4-methoxyphenylamino)-1,3,4-thiadiazol-2-yl)methylthio)-3-(4-methoxyphenyl)quinazolin-4(3H)-one (31)]
11 µM	COc1ccc(-n2c(SCc3nnc(S)n3-c3ccc(Cl)cc3)nc3cc(OC)c(OC)cc3c2=O)cc1 [(6,7-Dimethoxy)-2-((4-(4-chlorophenyl)-5-mercapto-4H-1,2,4-triazol-3-yl)methylthio)-3-(4-methoxyphenyl)quinazolin-4(3H)-one (26)]
10.8 µM	COc1ccc(-n2c(S)nnc2CSc2nc3cc(OC)c(OC)cc3c(=O)n2-c2ccc(OC)cc2)cc1 [(6,7-Dimethoxy)-2-((4-(4-methoxyphenyl)-5-mercapto-4H-1,2,4-triazol-3-yl)methylthio)-3-(4-methoxyphenyl)quinazolin-4(3H)-one (27)]
14.4 µM	CCOC(=O)CSc1nc2cc(OC)c(OC)cc2c(=O)n1-c1ccc(OC)cc1 [Ethyl 2-(6,7-dimethoxy-3-(4-methoxyphenyl)-4-oxo-3,4-dihydroquinazolin-2-yl-thio)acetate (13)]
7.6 µM	COc1ccc(-n2c(SCC(=O)N/N=C/c3ccc(Cl)cc3)nc3cc(OC)c(OC)cc3c2=O)cc1 [N'-[4-Chlorobenzylidene-2-(6,7-dimethoxy)-3-(4-methoxy-phenyl)-4-oxo-3,4-dihydroquinazolin-2-yl-thio]acetohydrazide (18)]
8 µM	COc1ccc(/C=N/NC(=O)CSc2nc3cc(OC)c(OC)cc3c(=O)n2-c2ccc(OC)cc2)cc1 [N'-[4-Methoxybenzylidene-2-(6,7-dimethoxy)-3-(4-methoxy-phenyl)-4-oxo-3,4-dihydroquinazolin-2-yl-thio]acetohydrazide (19)]
